Results on seven molecules are retold here after patent publication US10681908B2, “Molecules having pesticidal utility, and intermediates, compositions, and processes, related thereto” (Dow AgroSciences LLC, priority 2016, dated 2020).

The subject of assay [1] is Beet Armyworm (Spodoptera exigua, LAPHEG). In words: Bioassay on Beet Armyworm (BAW), 128-well diet tray assay. It counts as in vivo. Particulars: for mortality at 0.05 µg/cm2: 0.05 μg/cm^2, Table CD2 comparative data; for mortality at 0.05 µg/cm2 / mortality at 0.5 µg/cm2 / mortality at 5 µg/cm2: read-out: Percent control (or mortality) BAW; for mortality at 0.5 µg/cm2: 0.5 μg/cm^2, Table CD2 comparative data; for mortality at 5 µg/cm2: 5 μg/cm^2, Table CD2 comparative data; for mortality at 50 µg/cm2: 168 h, 50 μg/cm^2 on artificial diet, second instar larvae, five to seven days, 25° C., read-out: BAW % Control (or Mortality) rating. The procedure:
(§1) Example A: Bioassays on Beet Armyworm (Spodoptera Exigua, LAPHEG) (“BAW”), Corn Earworm (Helicoverpa zea, HELIZE) (“CEW”), and Cabbage Looper (Trichoplusia ni, TRIPNI) (“CL”)
(§2) Certain molecules disclosed in this document were tested against BAW, CEW, and CL using procedures described in the following examples. In the reporting of the results, the “BAW, CEW, & CL Rating Table” was used (See Table Section).
Bioassays on BAW were conducted using a 128-well diet tray assay. One to five second instar BAW larvae were placed in each well (3 mL) of the diet tray that had been previously filled with 1 mL of artificial diet to which 50 μg/cm^2 of the test molecule (dissolved in 50 μL of 90:10 acetone-water mixture) had been applied (to each of eight wells) and then allowed to dry. Trays were covered with a clear self-adhesive cover and held at 25° C., 14:10 light-dark for five to seven days. Percent mortality was recorded for the larvae in each well; activity in the eight wells was then averaged. The results are indicated in the table entitled “Table ABC: Biological Results” (See Table Section).
(§3) Bioassays on BAW and CL were conducted according to the procedures outlined in Example A: Bioassays on Beet Armyworm (“BAW”) and Cabbage Looper (“CL”) using the indicated concentrations.

For assay [2], the system named is Cabbage Looper (Trichoplusia ni, TRIPNI). In words: Bioassay on Cabbage Looper (CL), 128-well diet tray assay. It counts as in vivo. Particulars: for mortality at 0.05 µg/cm2: 0.05 μg/cm^2, Table CD2 comparative data; for mortality at 0.05 µg/cm2 / mortality at 0.5 µg/cm2 / mortality at 5 µg/cm2: read-out: Percent control (or mortality) CL; for mortality at 0.5 µg/cm2: 0.5 μg/cm^2, Table CD2 comparative data; for mortality at 5 µg/cm2: 5 μg/cm^2, Table CD2 comparative data; for mortality at 50 µg/cm2: 168 h, 50 μg/cm^2 on artificial diet, second instar larvae, five to seven days, 25° C., read-out: CL % Control (or Mortality) rating. The procedure:
as §1, §2
Bioassays on CL were conducted using a 128-well diet tray assay. One to five second instar CL larvae were placed in each well (3 mL) of the diet tray that had been previously filled with 1 mL of artificial diet to which 50 μg/cm^2 of the test molecule (dissolved in 50 μL of 90:10 acetone-water mixture) had been applied (to each of eight wells) and then allowed to dry. Trays were covered with a clear self-adhesive cover and held at 25° C., 14:10 light-dark for five to seven days. Percent mortality was recorded for the larvae in each well; activity in the eight wells was then averaged. The results are indicated in the table entitled “Table ABC: Biological Results” (See Table Section).
as §3

Take `Cc1cc(/C(F)=C/C(c2cc(Cl)c(Cl)c(Cl)c2)C(F)(F)F)ccc1C(=O)N[C@H](C)CSCC(F)(F)F` (stereo partly drawn) [F4, 2-Methyl-4-((Z)-1,4,4,4-tetrafluoro-3-(3,4,5-trichlorophenyl)but-1-en-1-yl)-N—((R)-1-((2,2,2-trifluoroethyl)thio)propan-2-yl)benzamide]: in assay [1], the mortality at 0.05 µg/cm2 was 67%, the mortality at 0.5 µg/cm2 amounted to 100%, the mortality at 5 µg/cm2 was 100% and the mortality at 50 µg/cm2 was 50 to 100%. Moreover, in assay [2], the mortality at 0.05 µg/cm2 worked out at 7%, the mortality at 0.5 µg/cm2 was determined as 60%, the mortality at 5 µg/cm2 was 100% and the mortality at 50 µg/cm2 fell in the range of 50 to 100%.

With `Cc1cc(/C(F)=C/C(c2cc(Cl)c(Cl)c(Cl)c2)C(F)(F)F)ccc1C(=O)N[C@H](C)C[S+]([O-])CC(F)(F)F` (stereo partly drawn) [F5, 2-Methyl-4-((Z)-1,4,4,4-tetrafluoro-3-(3,4,5-trichlorophenyl)but-1-en-1-yl)-N-((2R)-1-((2,2,2-trifluoroethyl)sulfinyl)propan-2-yl)benzamide], the mortality at 50 µg/cm2 in assay [1] and in assay [2] was 50 to 100% each time.

Consider `Cc1cc(/C(F)=C/C(c2cc(Cl)c(Cl)c(Cl)c2)C(F)(F)F)ccc1C(=O)N[C@H](C)CS(=O)(=O)CC(F)(F)F` (stereo partly drawn) [F6, 2-Methyl-4-((Z)-1,4,4,4-tetrafluoro-3-(3,4,5-trichlorophenyl)but-1-en-1-yl)-N—((R)-1-((2,2,2-trifluoroethyl)sulfonyl)propan-2-yl)benzamide], for which the mortality at 50 µg/cm2 in assay [1] and in assay [2] was 50 to 100% throughout.

Consider `C[C@H](CSCC(F)(F)F)NC(=O)c1ccc(/C(F)=C/C(c2cc(Cl)c(Cl)c(Cl)c2)C(F)(F)F)cc1Br` (stereo partly drawn) [F7, 2-Bromo-4-((Z)-1,4,4,4-tetrafluoro-3-(3,4,5-trichlorophenyl)but-1-en-1-yl)-N—((R)-1-((2,2,2-trifluoroethyl)thio)propan-2-yl)benzamide], for which, in assay [1], the mortality at 0.05 µg/cm2 was determined as 0%, the mortality at 0.5 µg/cm2 came out at 100%, the mortality at 5 µg/cm2 turned out to be 100% and the mortality at 50 µg/cm2 fell in the range of 50 to 100%. Besides, in assay [2], the mortality at 0.05 µg/cm2 was 0%, the mortality at 0.5 µg/cm2 amounted to 56%, the mortality at 5 µg/cm2 worked out at 100% and the mortality at 50 µg/cm2 lay within 50 to 100%.

As to `C[C@H](CS(=O)(=O)CC(F)(F)F)NC(=O)c1ccc(/C(F)=C/C(c2cc(Cl)c(Cl)c(Cl)c2)C(F)(F)F)cc1Br` (stereo partly drawn) [F8, 2-Bromo-4-((Z)-1,4,4,4-tetrafluoro-3-(3,4,5-trichlorophenyl)but-1-en-1-yl)-N—((R)-1-((2,2,2-trifluoroethyl)sulfonyl)propan-2-yl)benzamide], the mortality at 50 µg/cm2 in assay [1] and in assay [2] was 50 to 100% each time.

On to `C[C@H](C[S+]([O-])CC(F)(F)F)NC(=O)c1ccc(/C(F)=C/C(c2cc(Cl)c(Cl)c(Cl)c2)C(F)(F)F)cc1Br` (stereo partly drawn) [F9, 2-Bromo-4-((Z)-1,4,4,4-tetrafluoro-3-(3,4,5-trichlorophenyl)but-1-en-1-yl)-N-((2R)-1-((2,2,2-trifluoroethyl)sulfinyl)propan-2-yl)benzamide], for which the mortality at 50 µg/cm2 in assay [1] and in assay [2] was 50 to 100% throughout.

Regarding `C[C@H](CSCC(F)(F)F)NC(=O)c1ccc(/C(F)=C/C(c2cc(Cl)c(Cl)c(Cl)c2)C(F)(F)F)cc1Cl` (stereo partly drawn) [F10, 2-Chloro-4-((Z)-1,4,4,4-tetrafluoro-3-(3,4,5-trichlorophenyl)but-1-en-1-yl)-N—((R)-1-((2,2,2-trifluoroethyl)thio)propan-2-yl)benzamide], in assay [1], the mortality at 0.05 µg/cm2 amounted to 0%, the mortality at 0.5 µg/cm2 was 100%, the mortality at 5 µg/cm2 is 100% and the mortality at 50 µg/cm2 is 50 to 100%. In addition, in assay [2], the mortality at 0.05 µg/cm2 was determined as 6%, the mortality at 0.5 µg/cm2 was found to be 100%, the mortality at 5 µg/cm2 is 100% and the mortality at 50 µg/cm2 is 50 to 100%.

The mortality is the share of the test organisms that died.
